Assay results published in patent US7595320B2, “Hydrazinocarbonyl-thieno[2,3-C]pyrazoles, process for preparing them, compositions containing them and use thereof” (Aventis Pharma S.A., priority 2005, dated 2009).
pIC50: −log10 of the molar value.

Tests used:
Format in all cases: biochemical
Aurora1 = target: T1, Aurora1 (Homo sapiens, UniProt Q96GD4); test: Aurora1 enzymatic test, NuMA phosphorylation with [33P]ATP, Flashplate; settings: Aurora-B/INCENP-C3 recombinant complex, 1 μM ATP
T1 construct: His tag (N); made in house
Outline: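 Recombinant His-tagged Aurora-B/INCENP-C3 complex (10 nM) phosphorylates 500 nM His-NuMA fragment with 1 µM ATP plus [33P]ATP, 30 minutes at 37° C in Tris pH 7.5 with 5 mM MgCl2, on nickel-chelate Flashplates. Incorporated 33P counted; percent inhibition versus enzyme control after no-enzyme background subtraction.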

Aurora2 = target: T2, Aurora2 (Homo sapiens, UniProt O14965); test: Aurora2 enzymatic test, NuMA phosphorylation with [33P]ATP, Flashplate; settings: whole recombinant protein, 1 μM ATP
T2 construct: Aurora2: whole recombinant protein comprising an N-terminal histidine tail; His tag (N); made in house; host or cells: E. coli
T2 sequence (O14965 1-403): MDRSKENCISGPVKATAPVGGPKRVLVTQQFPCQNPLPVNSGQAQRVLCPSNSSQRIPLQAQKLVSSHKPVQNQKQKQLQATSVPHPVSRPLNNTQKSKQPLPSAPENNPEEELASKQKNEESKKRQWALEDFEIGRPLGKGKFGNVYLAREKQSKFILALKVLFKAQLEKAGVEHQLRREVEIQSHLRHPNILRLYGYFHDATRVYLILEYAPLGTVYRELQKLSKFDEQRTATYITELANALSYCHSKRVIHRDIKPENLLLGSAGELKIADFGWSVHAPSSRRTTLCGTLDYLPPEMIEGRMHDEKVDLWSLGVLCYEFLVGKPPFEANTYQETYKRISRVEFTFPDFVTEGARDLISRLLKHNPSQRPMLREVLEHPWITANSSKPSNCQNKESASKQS
Outline: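 Full-length His-tagged Aurora2 (E. coli, >82% pure) at 10 nM phosphorylated 500 nM His-NuMA fragment on Ni-chelate Flashplates. Conditions were pH 7.5 Tris buffer with 10 mM MgCl2, 1 μM ATP plus [33P]ATP, 30 min at 37 °C.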

CDK2/cycline E = target: T3, CDK2/cycline E (Homo sapiens, UniProt P24941); test: CDK2/cyclineE Flashplate test in 96-well format; settings: CDK2/cycline E complex, 1 μM ATP
T3 construct: made in house; host or cells: Sf21 insect cells (baculovirus coinfection)
Outline: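 Recombinant human CDK2/cyclin E (His-tagged cyclin E, coexpressed in Sf21 cells), 20 nM, phosphorylates biotinylated pRb peptide (10 μM) with 1 μM ATP plus [γ-33P]ATP in HEPES pH 7.5, MgCl2, DTT at 30 °C. Inhibitors tested at 10 μM down to 0.014 μM; 33P incorporation read by scintillation on streptavidin plates.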

Tie2 = target: T4, Tie2 (Homo sapiens, UniProt Q02763); test: Tie2 kinase test, phosphorylation of PLC with GST-Tie2; settings: GST-Tie2 intracellular domain 776-1124
T4 construct: amino acids of the intracellular domain 776-1124; made in house; host or cells: baculovirus expression (pFastBacGT vector)
T4 sequence (Q02763 776-1124): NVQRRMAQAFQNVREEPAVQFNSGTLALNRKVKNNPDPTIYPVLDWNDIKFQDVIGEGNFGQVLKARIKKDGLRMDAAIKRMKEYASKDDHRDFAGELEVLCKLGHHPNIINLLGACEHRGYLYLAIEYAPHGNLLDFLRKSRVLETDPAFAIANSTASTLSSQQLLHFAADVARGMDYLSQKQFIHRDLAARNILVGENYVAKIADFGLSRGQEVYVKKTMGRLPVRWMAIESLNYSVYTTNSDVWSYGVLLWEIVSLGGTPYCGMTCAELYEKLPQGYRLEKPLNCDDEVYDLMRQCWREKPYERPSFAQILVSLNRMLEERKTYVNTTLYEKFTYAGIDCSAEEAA

T1 sequence (Q96GD4 whole entry, species assumed): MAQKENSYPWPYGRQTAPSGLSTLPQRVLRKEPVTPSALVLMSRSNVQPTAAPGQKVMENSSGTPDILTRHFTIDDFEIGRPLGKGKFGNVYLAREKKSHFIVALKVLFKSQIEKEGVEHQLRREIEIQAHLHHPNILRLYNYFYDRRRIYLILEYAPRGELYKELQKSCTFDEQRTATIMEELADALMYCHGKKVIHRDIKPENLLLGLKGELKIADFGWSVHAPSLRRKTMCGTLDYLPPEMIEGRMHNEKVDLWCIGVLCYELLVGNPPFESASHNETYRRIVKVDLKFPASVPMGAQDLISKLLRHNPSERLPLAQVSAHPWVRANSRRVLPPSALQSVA
T1 sequence (Q9NQS7 835-903 partner limits assumed, species assumed): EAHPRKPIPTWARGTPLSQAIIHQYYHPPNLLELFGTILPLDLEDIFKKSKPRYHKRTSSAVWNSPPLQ

pIC50 (Aurora1) | pIC50 (Aurora2) | pIC50 (CDK2/cycline E) | pIC50 (Tie2) | Structure (SMILES)
6.83 | 7.36 | 7.34 | 6.37 | CC1CN(Cc2ccc(C(=O)Nc3n[nH]c4sc(C(=O)NN(C)c5ccc(Cl)cc5)cc34)cc2)CCN1 (centres unmarked) [Example 14b, N-{5-[N′-(4-chlorophenyl)-N′-methylhydrazinocarbonyl]-1H-thieno[2,3-c]pyrazol-3-yl}-4-(3-methylpiperazin-1-ylmethyl)benzamide]
7.68 | 8.40 | 6.67 | 7.24 | COCCN(NC(=O)c1cc2c(NC(=O)c3ccc(N4CCN(C)CC4)cc3)n[nH]c2s1)c1ccc(F)cc1 [Example 38, N-{5-[N′-(4-fluorophenyl)-N′-(2-methoxyethyl)-hydrazinocarbonyl]-1H-thieno[2,3-c]pyrazol-3-yl}-4-(4-methylpiperazin-1-yl)-benzamide]
8.10 | 8.10 | 6.75 | 6.93 | COc1ccc(C(=O)Nc2n[nH]c3sc(C(=O)NNc4ccccc4)cc23)cc1 [Example 1]
8.40 | 8.40 | 6.92 | 7.54 | CN1CCN(c2ccc(C(=O)Nc3n[nH]c4sc(C(=O)NN(C)c5ccccc5)cc34)cc2)CC1 [Example 35, N-[5-(N′-methyl-N′-phenylhydrazinocarbonyl)-1H-thieno[2,3-c]pyrazol-3-yl]-4-(4-methylpiperazin-1-yl)benzamide]
8.30 | 9.00 | 7.49 | 8.10 | CCN(NC(=O)c1cc2c(NC(=O)c3ccc(N4CCN(C)CC4)cc3)n[nH]c2s1)c1cccc(Br)c1 [Example 43, N-{5-[N′-(3-bromophenyl)-N′-ethylhydrazinocarbonyl]-1H-thieno[2,3-c]pyrazol-3-yl}-4-(4-methylpiperazin-1-yl)benzamide]
7.29 | 7.51 | 6.17 | 6.53 | COc1ccc(C(=O)Nc2n[nH]c3sc(C(=O)NNc4ccccn4)cc23)cc1 [Example 27, 4-methoxy-N-[5-(N′-pyrid-2-ylhydrazinocarbonyl)-1H-thieno[2,3-c]pyrazol-3-yl]benzamide]
6.47 | 7.46 | 7.03 | 6.64 | CN(NC(=O)c1cc2c(NC(=O)c3ccc(CN4CCCCC4)cc3)n[nH]c2s1)c1ccc(Cl)cc1 [Example 17b, N-[5-(N′-(4-chlorophenyl)-N′-methylhydrazinocarbonyl)-1H-thieno[2,3-c]-pyrazol-3-yl]-4-piperidin-1-ylmethylbenzamide]
6.00 | 6.52 | 6.03 | 5.49 | CN1CCN(Cc2cccc(C(=O)Nc3n[nH]c4sc(C(=O)NN(C)c5ccccc5)cc34)c2)CC1 [Example 16a, N-[5-(N′-methyl-N′-phenylhydrazinocarbonyl)-1H-thieno[2,3-c]pyrazol-3-yl]-3-(4-methylpiperazin-1-ylmethyl)-benzamide]
6.91 | 7.85 | 6.74 | 6.20 | CN(NC(=O)c1cc2c(NC(=O)c3ccc(CN4CCCC4)cc3)n[nH]c2s1)c1ccccc1 [Example 18a, N-[5-(N′-methyl-N′-phenylhydrazinocarbonyl)-1H-thieno[2,3-c]pyrazol-3-yl]-4-pyrrolidin-1-ylmethylbenzamide]
7.55 | 7.96 | 6.23 | 6.79 | COC[C@@H]1CCCN1NC(=O)c1cc2c(NC(=O)c3ccc(N4CCN(C)CC4)cc3)n[nH]c2s1 [Example 29, N-(2-methoxymethylpyrrolidin-1-yl)-3-[4-(4-methylpiperazin-1-yl)benzoylamino]-1H-thieno[2,3-c]pyrazole-5-carboxamide]
6.74 | 7.07 | 7.31 | 6.49 | CN(NC(=O)c1cc2c(NC(=O)c3ccc(CN4CCNCC4)cc3)n[nH]c2s1)c1ccc(Cl)cc1 [Example 13b, N-{5-[N′-(4-chlorophenyl)-N′-methylhydrazinocarbonyl]-1H-thieno[2,3-c]pyrazol-3-yl}-4-piperazin-1-ylmethylbenzamide]
7.26 | 7.85 | 6.91 | 6.37 | CN(NC(=O)c1cc2c(NC(=O)c3ccc(CN4CCCOCC4)cc3)n[nH]c2s1)c1ccccc1 [Example 21a, N-[5-(N′-methyl-N′-phenylhydrazinocarbonyl)-1H-thieno[2,3-c]pyrazol-3-yl]-4-perhydro-1,4-oxazepin-4-ylmethylbenzamide]
6.99 | 7.34 | 7.04 | 6.44 | CN1CCN(Cc2ccc(C(=O)Nc3n[nH]c4sc(C(=O)NN(C)c5ccccc5)cc34)cc2)CC1 [Example 10, N-[5-(N′-methyl-N′-phenylhydrazinocarbonyl)-1H-thieno[2,3-c]pyrazol-3-yl]-4-(4-methylpiperazin-1-ylmethyl)benzamide]
7.82 | 7.57 | 7.28 | 7.66 | CCN(NC(=O)c1cc2c(NC(=O)c3ccc(N4CCN(C)CC4)cc3)n[nH]c2s1)c1ccccc1C [Example 39, N-[5-(N′-ethyl-N′-o-tolylhydrazinocarbonyl)-1H-thieno[2,3-c]pyrazol-3-yl]-4-(4-methylpiperazin-1-yl)benzamide]
6.02 | 6.12 | 6.15 | 5.50 | CN(NC(=O)c1cc2c(NC(=O)c3cccc(CN4CCOCC4)c3)n[nH]c2s1)c1ccc(Cl)cc1 [Example 22b, N-{5-[N′-(4-chlorophenyl)-N′-methylhydrazinocarbonyl]-1H-thieno[2,3-c]pyrazol-3-yl}-3-morpholin-4-ylmethylbenzamide]
7.96 | 7.77 | 6.98 | 7.60 | CCN(NC(=O)c1cc2c(NC(=O)c3ccc(N4CCN(C)CC4)cc3)n[nH]c2s1)c1cccc(C)c1 [Example 40, N-[5-(N′-ethyl-N′-m-tolylhydrazinocarbonyl)-1H-thieno[2,3-c]pyrazol-3-yl]-4-(4-methylpiperazin-1-yl)benzamide]
6.80 | 7.72 | 6.78 | 6.13 | CC1CN(Cc2ccc(C(=O)Nc3n[nH]c4sc(C(=O)NN(C)c5ccccc5)cc34)cc2)CCN1 (centres unmarked) [Example 14a, N-[5-(N′-methyl-N′-phenylhydrazinocarbonyl)-1H-thieno[2,3-c]pyrazol-3-yl]-4-(3-methylpiperazin-1-ylmethyl)benzamide]
7.60 | 8.40 | 6.96 | 7.42 | CN1CCN(c2ccc(C(=O)Nc3n[nH]c4sc(C(=O)NNCc5ccccc5)cc34)cc2)CC1 [Example 32, N-[5-(N′-benzylhydrazinocarbonyl)-1H-thieno[2,3-c]pyrazol-3-yl]-4-(4-methylpiperazin-1-yl)benzamide]
6.72 | 7.15 | 6.46 | 6.07 | CN(C)CCN(C)Cc1ccc(C(=O)Nc2n[nH]c3sc(C(=O)NN(C)c4ccccc4)cc23)cc1 [Example 20a, 4-{[(2-dimethylaminoethyl)methylamino]methyl}-N-[5-(N′-methyl-N′-phenylhydrazinocarbonyl)-1H-thieno[2,3-c]pyrazol-3-yl]benzamide]
8.05 | 8.05 | 7.01 | 7.04 | COc1ccc(C(=O)Nc2n[nH]c3sc(C(=O)NN(C)c4ccccc4)cc23)cc1 [Example 2]
